From patent US11472846B2, “Compositions and methods for treating diseases by inhibiting exosome release” (priority 2016, dated 2022)

Key:
Format in all cases: cell-based, human
[1] = system: MDA-MB-231 breast cancer cells; test: InnoCyte cell migration assay, MDA-MB-231; details: MDA-MB-231 cells, 280 nM SMR peptide or 3 μM Latrunculin A, 24 hours
Description: (§1) 7-12. Cell migration assay. Cell migration assays were performed using the InnoCyte Cell Migration Assay (EMD Millipore Corporation, Temecula, Calif.) according to the manufacturer's instructions. Briefly, cell migration was monitored in the presence and absence of SMRwt peptides or latrunculin A (positive control inhibitor), which were added to the lower chamber of a 96-well plate. MCF-7 and MDA-MB-231 breast cancer cells and non-tumorigenic MCF-10A breast cells were harvested by 0.25% Trypsin-EDTA (Life Technologies) release and resuspended at 250,000500,000 cells/ml in serum-free RPMI 1640 media. A total of 25,000-50,000 cells was added to the upper chamber and allowed to migrate through an 8-μm pore-size membrane for 24 hours at 37° C. in a 5% CO2 atmosphere. Cells that migrated through the membrane were detached and labeled with Calcein-AM fluorescent dye. Fluorescence was measured using a Fluorescence Plate Reader (Molecular Devices, Sunnyvale, Calif.) with an excitation wavelength of 485 nm and an emission wavelength of 515 nm. The experiment was repeated in triplicate, and each conditioned experiment was performed in quadruplicate.

MDA-MB-231 exosomes = test: Western blot of exosomal proteins (Alix, vimentin, mortalin), MDA-MB-231; details: MDA-MB-231 cells, 48 hr treatment
Description: (§2) 7-7. Protein analysis by Western blotting. Exosomes were isolated from cell culture supernatants as described above. Protein concentrations were determined by measuring absorbance at 280 nm (Nanodrop 2000). Cultured cells were treated with PEG-SMR-Clu, SMR-CPP peptides, MKT-077, Omeprazole or DMA at 37° C. for 48 hr. To evaluate mortalin, vimentin and exosome expression, Western blot analysis was performed using anti-mortalin (Grp-75), anti-Vimentin and anti-Alix antibodies, respectively (FIG. 12).
(§3) Exosomes and cell lysates were prepared by incubating 5-10 min at 95° C. in sample buffer. The lysates were subjected to SDS-PAGE under reducing conditions (150 mM DTT) in 4-20% Criterion™ TGX™ precast gels (BioRad, Hercules, Calif.) and then transferred onto a nitrocellulose membrane (Bio-Rad, Hercules, Calif.). Nitrocellulose membranes were blocked with 5% skim milk (MedSupply, Atlanta, Ga.) in TBS containing 0.05% Tween 20 (TBST) for 1 h at room temperature. The membranes were treated with anti-mortalin (Grp-75) mAb or anti-α-tubulin mAb for cell lysates (FIG. 15, Panels A and B) or with anti-Alix and anti-vimentin or anti-mortalin for exosomes (FIG. 12), followed by peroxidase-conjugated goat anti-mouse IgG. Bands were developed with an ECL chemiluminescent substrate (Santa Cruz Biotechnology, Santa Cruz, Calif.) and exposed to an ImageQuant LAS 4000 imaging system (GE Healthcare, Piscataway, N.J. 08854).

MDA-MB-231 cells = test: Complement-mediated cell cytotoxicity assay (trypan blue), MDA-MB-231; details: for cell death under complement-positive conditions: 280 nM PEG-SMRwt-Clu or 560 nM SMRwt-CPP 60 min, then anti-CXCR4 antibody and NHS 60 min; for cell death under complement-negative conditions: 280 nM PEG-SMRwt-Clu or 560 nM SMRwt-CPP, 60 min
Description: 7-9. Complement-mediated cell cytotoxicity assay. Complement-mediated cell cytotoxicity assays were performed as previously described (Reiter et al., Mol Immunol. (1992) 29(6): p. 771-81). Briefly, MCF-7, MDA-MB-231 and K562 cells were either mock-transfected or transfected with mortalin siRNA. […] or SMRwt-CPP peptide or SMRmut-CPP peptide alone, or treated with SMR peptide combined with complement from normal human serum (NHS) or heat-inactivated normal human serum (NIS) for 60 min at 37° C. Percentage of cells lysed were determined by a trypan blue exclusion assay using the TC10™ Automated Cell Counter (Bio-Rad, Richmond Calif.). (FIG. 14, FIG. 15, Panel D).

[2] = system: exosomes from MCF-7 cells; test: Western blot of exosomal proteins (Alix, vimentin, mortalin), MCF-7; details: 48 hr treatment, vs negative controls
Description: as §2, §3

K562 exosomes = test: Western blot of exosomal proteins (Alix, vimentin, mortalin), K562; details: K562 cells, 48 hr treatment
Description: as §2, §3

MCF-7 cells = test: Complement-mediated cell cytotoxicity assay (trypan blue), MCF-7; details: for cell death under complement-positive conditions: 280 nM PEG-SMRwt-Clu or 560 nM SMRwt-CPP 60 min, then anti-CXCR4 antibody and NHS 60 min; for cell death under complement-negative conditions: 280 nM PEG-SMRwt-Clu or 560 nM SMRwt-CPP, 60 min
Description: (§4) 7-9. Complement-mediated cell cytotoxicity assay. Complement-mediated cell cytotoxicity assays were performed as previously described (Reiter et al., Mol Immunol. (1992) 29(6): p. 771-81). Briefly, MCF-7, MDA-MB-231 and K562 cells were either mock-transfected or transfected with mortalin siRNA. Cells were incubated with 1 μg/ml of anti-CXCR4 antibody for 30 min at 4° C., followed by treatment with PEG-SMRwt-Clu peptide or PEG-SMRmut-Clu peptide or SMRwt-CPP peptide or SMRmut-CPP peptide alone, or treated with SMR peptide combined with complement from normal human serum (NHS) or heat-inactivated normal human serum (NIS) for 60 min at 37° C. Percentage of cells lysed were determined by a trypan blue exclusion assay using the TC10™ Automated Cell Counter (Bio-Rad, Richmond Calif.). (FIG. 14, FIG. 15, Panel D).

K562 cells = test: Complement-mediated cell cytotoxicity assay (trypan blue), K562; details: for cell death under complement-positive conditions: 280 nM PEG-SMRwt-Clu or 560 nM SMRwt-CPP 60 min, then anti-CXCR4 antibody and NHS 60 min; for cell death under complement-negative conditions: 280 nM PEG-SMRwt-Clu or 560 nM SMRwt-CPP, 60 min
Description: as §4

[3] = system: MCF-7 breast cancer cells; test: InnoCyte cell migration assay, MCF-7; details: MCF-7 cells, 1120 nM SMR peptide or 3 μM Latrunculin A, 24 hours
Description: as §1

NXNVGFPVAAVGFPVHPLSKHPYWSQP (SEQ ID NO: 37) [PEG-SMRwt-Clu]
reduced migration by [1]: 52.37%
Alix expression in exosomes (MDA-MB-231 exosomes): significantly decreased
Mortalin expression in exosomes (MDA-MB-231 exosomes): significantly decreased
Vimentin expression in exosomes (MDA-MB-231 exosomes): significantly decreased
cell death under complement-positive conditions (MDA-MB-231 cells): 76%
cell death under complement-negative conditions (MDA-MB-231 cells): 3.6%
Alix expression in exosomes [2]: significantly decreased
Mortalin expression in exosomes [2]: significantly decreased
Vimentin expression in exosomes [2]: significantly decreased
Alix expression in exosomes (K562 exosomes): significantly decreased
Mortalin expression in exosomes (K562 exosomes): significantly decreased
cell death under complement-positive conditions (MCF-7 cells): 26%
cell death under complement-negative conditions (MCF-7 cells): 2.1%
cell death under complement-positive conditions (K562 cells): 55%
cell death under complement-negative conditions (K562 cells): 4.3%
reduced migration by [3]: 75.74%

VGFPVAAVGFPVGRKKRRQRRRPPQ [SMRwt-CPP]
reduced migration by [1]: 46.39%
Alix expression in exosomes (MDA-MB-231 exosomes): significantly decreased
Mortalin expression in exosomes (MDA-MB-231 exosomes): significantly decreased
Vimentin expression in exosomes (MDA-MB-231 exosomes): significantly decreased
cell death under complement-positive conditions (MDA-MB-231 cells): 9%
cell death under complement-negative conditions (MDA-MB-231 cells): 3.6%
Alix expression in exosomes [2]: significantly decreased
Mortalin expression in exosomes [2]: no significant changes
Vimentin expression in exosomes [2]: significantly decreased
Alix expression in exosomes (K562 exosomes): significantly decreased
Mortalin expression in exosomes (K562 exosomes): significantly decreased
cell death under complement-positive conditions (MCF-7 cells): 29%
cell death under complement-negative conditions (MCF-7 cells): 2.1%
cell death under complement-positive conditions (K562 cells): 23%
cell death under complement-negative conditions (K562 cells): 4.3%
reduced migration by [3]: 71.87%
